Entries after “also recorded” stand apart in the source; their conditions may differ.
Tests used:
Format in all cases: physicochemical
[1] = Weight partition coefficient Kb of hydrogen peroxide between the water and the working solution; H2O2 in organic phase
Protocol: (§1) (*) the polar solvents tested were sextate, decanenitrile, 2,2,6-trimethylcyclohexanecarbonitrile (C10A), 2,2,5,6-tetramethylcyclohexanecarbonitrile (C11A) and 1,2,2,4-tetramethylcyclohexylcarbonitrile (C11B). […] In this Figure, Kb stands for the weight partition coefficient of hydrogen peroxide between the water and the working solution (mixture of quinones and organic solvents). It is calculated using the following formula:
Kb=(g H2O2/kg aqueous phase)/(g H2O2/kg organic phase)

[2] = Approx density of polar solvents at ambient temperature
[3] = TOC in the H2O2 obtained (solubility of the solvent in H2O2); details: for Solubility of the solvent in H2O2 (as indicated by level of TOC in the H2O2 obtained): comparison in words, Table 2
[4] = Solubility tests of hydrogenated quinones (QH) in solvent mixtures (polar solvent + S-150), synthetic EQ/ETQ working solutions; details: for Test level values (theoretical gH2O2/kg of WS), comparison in words: Table 1; for Test level (gH2O2/kg) measured at 50° C. / Test level (gH2O2/kg) measured at 55° C. / Test level (gH2O2/kg) measured at 60° C. / Test level (gH2O2/kg) measured at 65° C. / Test level (gH2O2/kg) measured at 70° C.: 34*QH/240
Protocol: The determination of the QH solubility was performed on synthetic EQ/ETQ working solutions. These quinones mixed in the tested solvents have been hydrogenated to a fixed level and cooled down successively to 3 different temperatures before the measurement (min. 3 hours to stabilize the system between each measurement). The conditions applied for these tests were:
as §1, with “formula: […]” for “formula:”
The maximum solubility of a hydrogenated quinone (QH) in a solvent mixture is directly correlated with the productivity of the working solution. The higher is the QH solubility, the higher will be the theoretical quantity of hydrogen peroxide achievable per kg of WS (Productivity). These theoretical values, designated by the terms “Test level (gH2O2/kg of WS) measured at . . . ” in Table 1, were calculated as follows: […]
1 mole (240 g) ETQH (which actually is the QH in our Examples) per kg of WS will produce 1 mole (34 g) of H2O2 per kg of WS.

[5] = Polar solvent 30% / Solvesso 150 70%
[6] = Polar solvent 40% / Solvesso 150 60%
[7] = Polar solvent 60% / Solvesso 150 40%
[8] = Polar solvent 70% / Solvesso 150 30%
[9] = Polar solvent 50% / Solvesso 150 50%
[10] = polar solvent 77% / S150 23%, listed as 4MCH-CN

| Compound | H2O2 in OP [1, 5] | H2O2 in OP [1, 6] | H2O2 in OP [1, 7] | H2O2 in OP [1, 8] | Approx density of polar solvents at amb T° [2] | TOC in H2O2 [3, 5] | TOC in H2O2 [3, 6] | TOC in H2O2 [3, 9] | TOC in H2O2 [3, 7] | TOC in H2O2 [3, 8] | Solubility of the solvent in H2O2 (as indicated by level of TOC in the H2O2 obtained) [3] | Test level (gH2O2/kg) measured at 60° C. ([4]; polar solvent 50% / S150 50%) | Test level (gH2O2/kg) measured at 65° C. ([4]; polar solvent 50% / S150 50%) | Test level (gH2O2/kg) measured at 70° C. ([4]; polar solvent 50% / S150 50%) | H2O2 in OP [1, 9] | Test level values (theoretical gH2O2/kg of WS), comparison in words [4] | other results |
| --- | --- | --- | --- | --- | --- | --- | --- | --- | --- | --- | --- | --- | --- | --- | --- | --- | --- |
| CC1CCC(C)(C)C(C#N)C1C (stereo not shown) [C11A, 2,2,5,6-tetramethylcyclohexanecarbonitrile] | 0.919 g/kg | 1.271 g/kg | 2.332 g/kg | 2.786 g/kg | ~0.895 kg/L | 281 ppm | 268 ppm | 269 ppm | 274 ppm | 291 ppm | less soluble in H2O2 than solvent C10A | 9.8 gH2O2/kg | 10.8 gH2O2/kg | 14.8 gH2O2/kg |  | reach the absolute maximum theoretical value | Test level (gH2O2/kg) measured at 50° C. ([4]; polar solvent 50% / S150 50%): 7.7 gH2O2/kg; Test level (gH2O2/kg) measured at 55° C. ([4]; polar solvent 50% / S150 50%): 8.6 gH2O2/kg; Test level (gH2O2/kg) measured at 50° C. ([4]; polar solvent 77% / S150 23%): 11.9 gH2O2/kg; Test level (gH2O2/kg) measured at 55° C. ([4]; polar solvent 77% / S150 23%): 12.8 gH2O2/kg; QH (g/kg) measured at 60° C. ([4]; polar solvent 77% / S150 23%): complete solubility; Test level (gH2O2/kg) measured at 60° C. ([4]; polar solvent 77% / S150 23%): 16.3 gH2O2/kg; Test level (gH2O2/kg) measured at 60° C. [4, 10]: full soluble; QH (g/kg) measured at 60° C. [4, 10]: full soluble; QH (g/kg) measured at 65° C. ([4]; polar solvent 77% / S150 23%): full soluble; Test level (gH2O2/kg) measured at 65° C. ([4]; polar solvent 77% / S150 23%): full soluble; QH (g/kg) measured at 70° C. ([4]; polar solvent 77% / S150 23%): full soluble; Test level (gH2O2/kg) measured at 70° C. ([4]; polar solvent 77% / S150 23%): full soluble |
| CC1CCCC(C)(C)C1C#N (stereo not shown) [C10A, 2,2,6-trimethylcyclohexanecarbonitrile] | 0.9821 g/kg | 1.466 g/kg | 3.08 g/kg | 3.871 g/kg | ~0.89 kg/L | 928 ppm | 1042 ppm | 1248 ppm | 1456 ppm | 1684 ppm |  | 10.5 gH2O2/kg | 11.4 gH2O2/kg | full soluble | 2.135 g/kg | much higher (almost the double in fact) than with sextate or a linear nitrile like decanenitrile | QH (g/kg) measured at 70° C. ([4]; polar solvent 50% / S150 50%): full soluble; Test level (gH2O2/kg) measured at 60° C. ([4]; polar solvent 60% / S150 40%): 15.6 gH2O2/kg; QH (g/kg) measured at 65° C. ([4]; polar solvent 60% / S150 40%): full soluble; Test level (gH2O2/kg) measured at 65° C. ([4]; polar solvent 60% / S150 40%): full soluble; QH (g/kg) measured at 70° C. ([4]; polar solvent 60% / S150 40%): full soluble; Test level (gH2O2/kg) measured at 70° C. ([4]; polar solvent 60% / S150 40%): full soluble |
| CC1CCC(C)(C#N)C(C)(C)C1 (stereo not shown) [C11B, 1,2,2,4-tetramethylcyclohexanecarbonitrile] |  | 1.632 g/kg | 3.167 g/kg | 3.805 g/kg |  |  | 308 ppm | 328 ppm | 280 ppm | 290 ppm | less soluble in H2O2 than solvent C10A |  |  |  | 2.487 g/kg |  | Test level (gH2O2/kg) measured at 55° C. ([4]; polar solvent 52% / S150 48%): 9.4 gH2O2/kg; Test level (gH2O2/kg) measured at 60° C. ([4]; polar solvent 52% / S150 48%): 10.8 gH2O2/kg; Test level (gH2O2/kg) measured at 65° C. ([4]; polar solvent 52% / S150 48%): 15.1 gH2O2/kg; QH (g/kg) measured at 70° C. ([4]; polar solvent 52% / S150 48%): full soluble; Test level (gH2O2/kg) measured at 70° C. ([4]; polar solvent 52% / S150 48%): full soluble; Test level (gH2O2/kg) measured at 55° C. ([4]; polar solvent 70% / S150 30%): 15.5 gH2O2/kg; QH (g/kg) measured at 60° C. ([4]; polar solvent 70% / S150 30%): complete solubility; also recorded: full soluble; QH (g/kg) measured at 65° C. ([4]; polar solvent 70% / S150 30%): full soluble; Test level (gH2O2/kg) measured at 65° C. ([4]; polar solvent 70% / S150 30%): full soluble; QH (g/kg) measured at 70° C. ([4]; polar solvent 70% / S150 30%): full soluble; Test level (gH2O2/kg) measured at 70° C. ([4]; polar solvent 70% / S150 30%): full soluble |

Further lines, with some results ahead:

| H2O2 in OP [1, 5] | H2O2 in OP [1, 6] | H2O2 in OP [1, 7] | H2O2 in OP [1, 8] | Approx density of polar solvents at amb T° [2] | TOC in H2O2 [3, 5] | TOC in H2O2 [3, 6] | TOC in H2O2 [3, 9] | TOC in H2O2 [3, 7] | TOC in H2O2 [3, 8] | Solubility of the solvent in H2O2 (as indicated by level of TOC in the H2O2 obtained) [3] | Test level (gH2O2/kg) measured at 60° C. ([4]; polar solvent 50% / S150 50%) | Test level (gH2O2/kg) measured at 65° C. ([4]; polar solvent 50% / S150 50%) | Test level (gH2O2/kg) measured at 70° C. ([4]; polar solvent 50% / S150 50%) | H2O2 in OP [1, 9] | Compound | Test level values (theoretical gH2O2/kg of WS), comparison in words [4] | other results |
| --- | --- | --- | --- | --- | --- | --- | --- | --- | --- | --- | --- | --- | --- | --- | --- | --- | --- |
|  |  |  |  | ~0.83 kg/L |  |  |  |  |  |  |  |  |  |  | CCCCCCCCCC#N [Decanenitrile, decanenitrile, reference compound] |  | Test level (gH2O2/kg) measured at 60° C. ([4]; polar solvent 35% / S150 65%): 8.8 gH2O2/kg; Test level (gH2O2/kg) measured at 65° C. ([4]; polar solvent 35% / S150 65%): 10.1 gH2O2/kg; Test level (gH2O2/kg) measured at 70° C. ([4]; polar solvent 35% / S150 65%): 11.1 gH2O2/kg |
|  |  |  |  | ~0.94 kg/L |  |  |  |  |  |  |  |  |  |  | methyl cyclohexyl acetate [Sextate, reference compound] |  | QH (g/kg) measured at 60° C. ([4]; polar solvent 40% / S150 60%): 52 g/kg; Test level (gH2O2/kg) measured at 60° C. ([4]; polar solvent 40% / S150 60%): 7.4 gH2O2/kg; QH (g/kg) measured at 65° C. ([4]; polar solvent 40% / S150 60%): 60.8 g/kg; Test level (gH2O2/kg) measured at 65° C. ([4]; polar solvent 40% / S150 60%): 8.6 gH2O2/kg; QH (g/kg) measured at 70° C. ([4]; polar solvent 40% / S150 60%): 68 g/kg; Test level (gH2O2/kg) measured at 70° C. ([4]; polar solvent 40% / S150 60%): 9.6 gH2O2/kg |

— patent US20220274913A1, “PROCESS FOR MANUFACTURING A SUBSTITUTED CYCLOHEXANECARBONITRILE” (SOLVAY SA, priority 2019, published 2022)
